Source: patent US20150148234A1, “HERBICIDE-RESISTANT SUNFLOWER PLANTS WITH MULTIPLE HERBICIDE RESISTANT ALLELES OF AHASL1 AND METHODS OF USE” (NIDERA S.A., priority 2013, published 2015)

Tests used:
Assay in all cases: imazapyr whole plant greenhouse test (Example 2)
Assay type in all cases: in vivo
[1] = system: sunflower line L5 (BTK 47), susceptible, WT; conditions: for Phytotoxicity Index (0-9) 14 days after treatment / biomass accumulation 14 days after treatment, % of untreated / plant height 14 days after treatment, % of untreated: L5; for height reduction: susceptible line
Method: (§1) Seeds were sown in Petri dishes and, after germination, plantlets were transplanted to pots of 10 cm of diameter in a potting media consisting of equal parts of vermiculite, soil and sand. Plants were grown in a greenhouse under natural light conditions supplemented with 400 W sodium halide lamps to provide a 16 hr daylength. Day/night temperatures were 25 and 20 ° C., respectively. At the V2-V4 stage (Schneiter & Miller (1981) Crop Sci. 21:901-903) 10 plants of each genotype were randomly assigned to each treatment consisting of eight imazapyr doses (0, 40, 80, 160, 240, 320, 400 and 480 g ai/ha, corresponding to untreated, 0.5×, 1×, 2×, 3×, 4×, 5× and 6×, respectively), and a zero-time biomass determination. Experiment was arranged as a randomized block design with a full factorial (sunflower line×treatment) arrangement of treatments and 10 replications.
(§2) On the day of herbicide application ten plants of each genotype were cut at the cotyledonal node and dried at 60° C. for 48 hrs for zero-time dried weight determination.
(§3) The remaining plants were maintained for 14 days after imazapyr treatment (DAT) and their height, Phytotoxicity Index (PI) and above ground dry biomass were determined Height was determined as the distance between the cotyledonal node and the apex of each plant. Above ground biomass data from each line were converted to biomass accumulation after application by subtracting the appropriate average zero- time biomass from each sample. Dry biomass data were converted to percentages of the untreated control plants within each line to allow direct comparisons between groups.

sunflower line L1, A205V = system: sunflower line L1, A205V
Method: as §1, §2, §3

sunflower line L4, A122T = system: sunflower line L4, A122T
Method: as §1, §2, §3

Structure (SMILES): CC(C)C1(C)N=C(c2ncccc2C(=O)O)NC1=O (stereo not shown) [imazapyr]
- Phytotoxicity Index (0-9) 14 days after treatment ([1]; dose 0.5 (0.5x, 40 g ai/ha)): 9
- biomass accumulation 14 days after treatment, % of untreated ([1]; dose 0.5 (0.5x, 40 g ai/ha)): 18.3%
- plant height 14 days after treatment, % of untreated ([1]; dose 0.5 (0.5x, 40 g ai/ha)): 20.14%
- Phytotoxicity Index (0-9) 14 days after treatment ([1]; dose 1 (1x, 80 g ai/ha)): 9
- biomass accumulation 14 days after treatment, % of untreated ([1]; dose 1 (1x, 80 g ai/ha)): 15.0%
- plant height 14 days after treatment, % of untreated ([1]; dose 1 (1x, 80 g ai/ha)): 14.58%
- Phytotoxicity Index (0-9) 14 days after treatment ([1]; dose 2 (2x, 160 g ai/ha)): 9
- biomass accumulation 14 days after treatment, % of untreated ([1]; dose 2 (2x, 160 g ai/ha)): 15.0%
- plant height 14 days after treatment, % of untreated ([1]; dose 2 (2x, 160 g ai/ha)): 14.58%
- Phytotoxicity Index (0-9) 14 days after treatment ([1]; dose 3 (3x, 240 g ai/ha)): 9
- biomass accumulation 14 days after treatment, % of untreated ([1]; dose 3 (3x, 240 g ai/ha)): 15.0%
- plant height 14 days after treatment, % of untreated ([1]; dose 3 (3x, 240 g ai/ha)): 14.58%
- Phytotoxicity Index (0-9) 14 days after treatment ([1]; dose 4 (4x, 320 g ai/ha)): 9
- biomass accumulation 14 days after treatment, % of untreated ([1]; dose 4 (4x, 320 g ai/ha)): 15.0%
- plant height 14 days after treatment, % of untreated ([1]; dose 4 (4x, 320 g ai/ha)): 14.58%
- Phytotoxicity Index (0-9) 14 days after treatment ([1]; dose 5 (5x, 400 g ai/ha)): 9
- biomass accumulation 14 days after treatment, % of untreated ([1]; dose 5 (5x, 400 g ai/ha)): 15.0%
- plant height 14 days after treatment, % of untreated ([1]; dose 5 (5x, 400 g ai/ha)): 14.58%
- Phytotoxicity Index (0-9) 14 days after treatment ([1]; dose 6 (6x, 480 g ai/ha)): 9
- biomass accumulation 14 days after treatment, % of untreated ([1]; dose 6 (6x, 480 g ai/ha)): 15.0%
- plant height 14 days after treatment, % of untreated ([1]; dose 6 (6x, 480 g ai/ha)): 14.58%
- height reduction ([1]; 0.5x, 14 DAT): 85%
- height reduction ([1]; from 1x to 6x, of the untreated control plants): approximately 85%
- Phytotoxicity Index (0-9) 14 days after treatment (sunflower line L1, A205V; dose 0.5 (0.5x, 40 g ai/ha)): 0
- biomass accumulation 14 days after treatment, % of untreated (sunflower line L1, A205V; dose 0.5 (0.5x, 40 g ai/ha)): 91.7%
- plant height 14 days after treatment, % of untreated (sunflower line L1, A205V; dose 0.5 (0.5x, 40 g ai/ha)): 100.0%
- Phytotoxicity Index (0-9) 14 days after treatment (sunflower line L1, A205V; dose 1 (1x, 80 g ai/ha)): 0
- biomass accumulation 14 days after treatment, % of untreated (sunflower line L1, A205V; dose 1 (1x, 80 g ai/ha)): 81.7%
- plant height 14 days after treatment, % of untreated (sunflower line L1, A205V; dose 1 (1x, 80 g ai/ha)): 100.0%
- Phytotoxicity Index (0-9) 14 days after treatment (sunflower line L1, A205V; dose 2 (2x, 160 g ai/ha)): 1.6
- biomass accumulation 14 days after treatment, % of untreated (sunflower line L1, A205V; dose 2 (2x, 160 g ai/ha)): 54.7%
- plant height 14 days after treatment, % of untreated (sunflower line L1, A205V; dose 2 (2x, 160 g ai/ha)): 78.9%
- Phytotoxicity Index (0-9) 14 days after treatment (sunflower line L1, A205V; dose 3 (3x, 240 g ai/ha)): 5.1
- biomass accumulation 14 days after treatment, % of untreated (sunflower line L1, A205V; dose 3 (3x, 240 g ai/ha)): 35.7%
- plant height 14 days after treatment, % of untreated (sunflower line L1, A205V; dose 3 (3x, 240 g ai/ha)): 50.0%
- Phytotoxicity Index (0-9) 14 days after treatment (sunflower line L1, A205V; dose 4 (4x, 320 g ai/ha)): 8.4
- biomass accumulation 14 days after treatment, % of untreated (sunflower line L1, A205V; dose 4 (4x, 320 g ai/ha)): 25.3%
- plant height 14 days after treatment, % of untreated (sunflower line L1, A205V; dose 4 (4x, 320 g ai/ha)): 38.1%
- Phytotoxicity Index (0-9) 14 days after treatment (sunflower line L1, A205V; dose 5 (5x, 400 g ai/ha)): 8.9
- biomass accumulation 14 days after treatment, % of untreated (sunflower line L1, A205V; dose 5 (5x, 400 g ai/ha)): 19.8%
- plant height 14 days after treatment, % of untreated (sunflower line L1, A205V; dose 5 (5x, 400 g ai/ha)): 31.8%
- Phytotoxicity Index (0-9) 14 days after treatment (sunflower line L1, A205V; dose 6 (6x, 480 g ai/ha)): 8.9
- biomass accumulation 14 days after treatment, % of untreated (sunflower line L1, A205V; dose 6 (6x, 480 g ai/ha)): 19.5%
- plant height 14 days after treatment, % of untreated (sunflower line L1, A205V; dose 6 (6x, 480 g ai/ha)): 34.7%
- Phytotoxicity Index (0-9) 14 days after treatment (sunflower line L4, A122T; dose 0.5 (0.5x, 40 g ai/ha)): 0.0
- biomass accumulation 14 days after treatment, % of untreated (sunflower line L4, A122T; dose 0.5 (0.5x, 40 g ai/ha)): 100.0%
- plant height 14 days after treatment, % of untreated (sunflower line L4, A122T; dose 0.5 (0.5x, 40 g ai/ha)): 100.0%
- Phytotoxicity Index (0-9) 14 days after treatment (sunflower line L4, A122T; dose 1 (1x, 80 g ai/ha)): 0.0
- biomass accumulation 14 days after treatment, % of untreated (sunflower line L4, A122T; dose 1 (1x, 80 g ai/ha)): 99.1%
- plant height 14 days after treatment, % of untreated (sunflower line L4, A122T; dose 1 (1x, 80 g ai/ha)): 100.0%
- Phytotoxicity Index (0-9) 14 days after treatment (sunflower line L4, A122T; dose 2 (2x, 160 g ai/ha)): 0.0
- biomass accumulation 14 days after treatment, % of untreated (sunflower line L4, A122T; dose 2 (2x, 160 g ai/ha)): 97.0%
- plant height 14 days after treatment, % of untreated (sunflower line L4, A122T; dose 2 (2x, 160 g ai/ha)): 101.8%
- Phytotoxicity Index (0-9) 14 days after treatment (sunflower line L4, A122T; dose 3 (3x, 240 g ai/ha)): 0.0
- biomass accumulation 14 days after treatment, % of untreated (sunflower line L4, A122T; dose 3 (3x, 240 g ai/ha)): 96.1%
- plant height 14 days after treatment, % of untreated (sunflower line L4, A122T; dose 3 (3x, 240 g ai/ha)): 97.0%
- Phytotoxicity Index (0-9) 14 days after treatment (sunflower line L4, A122T; dose 4 (4x, 320 g ai/ha)): 0.0
- biomass accumulation 14 days after treatment, % of untreated (sunflower line L4, A122T; dose 4 (4x, 320 g ai/ha)): 84.3%
- plant height 14 days after treatment, % of untreated (sunflower line L4, A122T; dose 4 (4x, 320 g ai/ha)): 92.1%
- Phytotoxicity Index (0-9) 14 days after treatment (sunflower line L4, A122T; dose 5 (5x, 400 g ai/ha)): 0.0
- biomass accumulation 14 days after treatment, % of untreated (sunflower line L4, A122T; dose 5 (5x, 400 g ai/ha)): 77.5%
- plant height 14 days after treatment, % of untreated (sunflower line L4, A122T; dose 5 (5x, 400 g ai/ha)): 84.8%
- Phytotoxicity Index (0-9) 14 days after treatment (sunflower line L4, A122T; dose 6 (6x, 480 g ai/ha)): 0.5
- biomass accumulation 14 days after treatment, % of untreated (sunflower line L4, A122T; dose 6 (6x, 480 g ai/ha)): 70.7%
